{
  "source": "patent US7452691B2",
  "about": "“Device and method for detecting antibiotic inactivating enzymes” (priority 2005, dated 2008)",
  "format_in_all_cases": "cell-based",
  "key": {"OXA-7": {"target": "OXA-7 (Escherichia coli, UniProt P35695)", "sequence (P35695 21-266)": "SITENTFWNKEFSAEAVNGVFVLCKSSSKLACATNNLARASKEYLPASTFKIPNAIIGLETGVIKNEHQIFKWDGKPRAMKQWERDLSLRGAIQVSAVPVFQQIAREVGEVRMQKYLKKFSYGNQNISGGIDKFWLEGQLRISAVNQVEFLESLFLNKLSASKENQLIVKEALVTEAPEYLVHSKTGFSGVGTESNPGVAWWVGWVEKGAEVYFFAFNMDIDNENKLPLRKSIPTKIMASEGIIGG", "assay": "Indirect reagent disk test, antibiotic inactivation", "settings": "enzyme OXA-7; indirect method", "description": "(§2) A solution of equal parts of physiological saline and Tris EDTA (Sigma Chemicals) is made. • 2. A 20 microliter aliquot of the permeabilizing agent solution was placed onto a filter paper disk and allowed to dry. […] The filter paper disk impregnated with the permeabilizing agent was rehydrated with 20 microliters of sterile physiological saline. • 2. Using a cotton swab or loop, a test organism was rubbed onto the rehydrated disk. • 3. A Mueller Hinton Agar plate was inoculated with a 0.5 McFarland of E. coli ATCC 25922. • 4. A cefoxitin disk was placed onto the surface of the agar plate. The rehydrated disk inoculated with the test organism next was placed next to the cefoxitin disk, at a distance of about 0.5-1.0 mm. • 5. The agar plate was incubated at 37° C. for about 16 hours, or overnight. • 6. Distortion of the cefoxitin zone was interpreted as a positive result (i.e., the presence of an antibiotic-inactivating factor was detected), whereas lack of distortion of the cefoxitin zone was interpreted as a negative result.\nAn indentation of a zone of inhibition around the antibiotic dish was interpreted as positive for presence of antibiotic-inactivating factor."}, "OXA-4": {"tested_on": "OXA-4", "assay": "Indirect reagent disk test, antibiotic inactivation", "settings": "enzyme OXA-4; indirect method", "protocol": "(§3) The indirect method was performed essentially as described in Example 4, except the antibiotic disks were as indicated. An indentation of a zone of inhibition around the antibiotic dish was interpreted as positive for presence of antibiotic-inactivating factor."}, "OXA-6": {"tested_on": "OXA-6", "assay": "Indirect reagent disk test, antibiotic inactivation", "settings": "enzyme OXA-6; indirect method", "protocol": "as §3"}, "FOX-1": {"tested_on": "FOX-1", "assay": "Indirect reagent disk test, antibiotic inactivation", "settings": "enzyme FOX-1; indirect method", "description": "as §2, §3"}, "E. coli V1104": {"tested_on": "E. coli V1104", "assay": "Spectrophotometric hydrolysis assay of β-lactamase released by permeabilizing agent, nitrocefin as substrate", "method": "H., et al., A.A.C. 1:283-288 (1972). […] The nitrocefin was prewarmed to 37° C.\nThe experiment in Example 1 was repeated using E. coli V1104 to evaluate a variety of permeabilizing agents. Nitrocefan was the hydrolysis substrate."}, "OXA-5": {"target": "OXA-5 (Pseudomonas aeruginosa, UniProt Q00982)", "sequence (Q00982 20-267)": "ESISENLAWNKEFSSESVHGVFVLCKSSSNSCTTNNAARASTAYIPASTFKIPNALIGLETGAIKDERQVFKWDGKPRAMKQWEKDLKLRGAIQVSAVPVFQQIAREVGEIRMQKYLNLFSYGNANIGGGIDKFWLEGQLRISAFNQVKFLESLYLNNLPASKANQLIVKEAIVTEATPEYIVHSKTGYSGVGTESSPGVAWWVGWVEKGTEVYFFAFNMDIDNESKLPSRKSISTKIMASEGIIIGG", "assay": "Indirect reagent disk test, antibiotic inactivation", "settings": "enzyme OXA-5; indirect method", "protocol": "as §3"}, "OXA-2": {"target": "OXA-2 (Escherichia coli, UniProt P0A1V9)", "sequence (P0A1V9 22-275)": "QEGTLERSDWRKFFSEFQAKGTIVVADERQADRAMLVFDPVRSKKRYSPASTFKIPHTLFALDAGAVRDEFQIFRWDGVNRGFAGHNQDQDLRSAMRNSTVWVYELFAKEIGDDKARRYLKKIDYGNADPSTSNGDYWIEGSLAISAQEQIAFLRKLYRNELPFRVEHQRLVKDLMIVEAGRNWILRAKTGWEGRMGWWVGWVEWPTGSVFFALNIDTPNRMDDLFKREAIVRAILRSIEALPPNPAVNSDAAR", "assay": "Indirect reagent disk test, antibiotic inactivation", "settings": "enzyme OXA-2; indirect method", "protocol": "as §3"}, "PSE-1": {"target": "PSE-1 (Pseudomonas aeruginosa, UniProt Q03170)", "sequence (Q03170 18-288)": "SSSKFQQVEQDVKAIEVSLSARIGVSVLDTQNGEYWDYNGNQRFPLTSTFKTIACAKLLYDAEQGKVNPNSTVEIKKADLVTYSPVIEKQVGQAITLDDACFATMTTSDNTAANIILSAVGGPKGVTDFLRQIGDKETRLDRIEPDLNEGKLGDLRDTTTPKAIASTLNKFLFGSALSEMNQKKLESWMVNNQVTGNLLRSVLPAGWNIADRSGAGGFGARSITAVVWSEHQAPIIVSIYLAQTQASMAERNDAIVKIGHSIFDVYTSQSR", "assay": "Indirect reagent disk test, antibiotic inactivation", "settings": "enzyme PSE-1; indirect method", "source_text": "(§1) • 1. […] Performing and Interpreting the Test • 1."}, "L-1": {"target": "L-1 (Stenotrophomonas maltophilia, UniProt P52700)", "sequence (P52700 34-290)": "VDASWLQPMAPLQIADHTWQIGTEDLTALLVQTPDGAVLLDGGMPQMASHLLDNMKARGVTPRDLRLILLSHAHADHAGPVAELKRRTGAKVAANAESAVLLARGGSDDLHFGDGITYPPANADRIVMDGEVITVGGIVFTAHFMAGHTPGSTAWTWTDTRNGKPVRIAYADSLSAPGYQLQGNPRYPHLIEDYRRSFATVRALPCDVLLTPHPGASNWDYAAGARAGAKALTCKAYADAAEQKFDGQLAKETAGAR", "assay": "Indirect reagent disk test, antibiotic inactivation", "settings": "enzyme L-1; indirect method", "source_text": "as §1"}, "SHV-1": {"target": "SHV-1 (Klebsiella pneumoniae, UniProt P0AD64)", "sequence (P0AD64 22-286)": "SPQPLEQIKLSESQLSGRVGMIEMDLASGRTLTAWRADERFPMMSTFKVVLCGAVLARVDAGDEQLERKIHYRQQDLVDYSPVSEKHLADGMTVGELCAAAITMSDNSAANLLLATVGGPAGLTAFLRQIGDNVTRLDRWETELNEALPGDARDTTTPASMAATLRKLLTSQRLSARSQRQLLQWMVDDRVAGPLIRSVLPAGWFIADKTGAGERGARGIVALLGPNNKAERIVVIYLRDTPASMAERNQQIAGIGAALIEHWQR", "assay": "Indirect reagent disk test, antibiotic inactivation", "settings": "enzyme SHV-1; indirect method", "description": "as §2, §3"}, "OXA-3": {"target": "OXA-3 (Pseudomonas aeruginosa, UniProt Q51429)", "sequence (Q51429 22-275)": "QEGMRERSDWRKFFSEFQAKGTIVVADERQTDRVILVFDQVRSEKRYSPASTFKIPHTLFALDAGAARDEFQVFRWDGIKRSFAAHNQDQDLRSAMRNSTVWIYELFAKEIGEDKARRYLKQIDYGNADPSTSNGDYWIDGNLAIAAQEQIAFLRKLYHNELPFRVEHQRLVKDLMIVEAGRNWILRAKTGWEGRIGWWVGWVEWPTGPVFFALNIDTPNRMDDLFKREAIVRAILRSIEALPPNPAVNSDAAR", "assay": "Indirect reagent disk test, antibiotic inactivation", "settings": "enzyme OXA-3; indirect method", "description": "as §2, §3"}},
  "data": [
    {"smiles": "CC(C)(O/N=C(\\C(=O)N[C@@H]1C(=O)N2C(C(=O)[O-])=C(C[n+]3ccccc3)CS[C@H]12)c1csc(N)n1)C(=O)O", "note": "[Ceftazidime, ceftazidime]", "values": [
      {"measurement": "Reagent disk test result (indentation of inhibition zone = antibiotic inactivation)", "setting": "OXA-7", "result": "N"},
      {"measurement": "Reagent disk test result (indentation of inhibition zone = antibiotic inactivation)", "setting": "OXA-4", "result": "N"},
      {"measurement": "Reagent disk test result (indentation of inhibition zone = antibiotic inactivation)", "setting": "OXA-6", "result": "N"},
      {"measurement": "Reagent disk test result (indentation of inhibition zone = antibiotic inactivation)", "setting": "FOX-1", "result": "N"},
      {"measurement": "Units of β-lactamase Activity (Nitrocefin as substrate)", "setting": "E. coli V1104", "result": 196},
      {"measurement": "Reagent disk test result (indentation of inhibition zone = antibiotic inactivation)", "setting": "OXA-5", "result": "N"},
      {"measurement": "Reagent disk test result (indentation of inhibition zone = antibiotic inactivation)", "setting": "OXA-2", "result": "N"},
      {"measurement": "Reagent disk test result (indentation of inhibition zone = antibiotic inactivation)", "setting": "PSE-1", "result": "N"},
      {"measurement": "Reagent disk test result (indentation of inhibition zone = antibiotic inactivation)", "setting": "L-1", "result": "N"},
      {"measurement": "Reagent disk test result (indentation of inhibition zone = antibiotic inactivation)", "setting": "SHV-1", "result": "N"},
      {"measurement": "Reagent disk test result (indentation of inhibition zone = antibiotic inactivation)", "setting": "OXA-3", "result": "N"}
    ]}
  ]
}
